In publication PMC10213797 (Acta Pharmaceutica Sinica. B, 2023):

Key:
[1] = Metal chelation, UV–Vis spectra and Cu2+ titration; assay type: physicochemical; settings: 30 μmol/L QN, equimolar metal ion, HEPES pH 7.4
[2] = test system: APPSwe/PS1δE9 double transgenic mice; assay: Aβ plaque load after chronic treatment, Thioflavin S staining; settings: male and female mice at 10 months of age, 0.62 mg/kg/day, 4-month treatment
[3] = test system: SH-SY5Y cells; assay: Metabolic activity, MTS assay, SH-SY5Y; assay type: cell-based; settings: 24 h, 1–100 μmol/L
[4] = test system: mice; assay: Rotarod test; assay type: in vivo; settings: 30 mg/kg i.p.; 6, 18, and 24 rpm
[5] = molecular target: T1, hBChE (Homo sapiens, UniProt P06276); assay: hBChE inhibition kinetics, progress curves of BTCI hydrolysis; assay type: biochemical; settings: 50 μmol/L BTCI, 25 °C, pH 7.0
[6] = test system: HepG2 cells; assay: Metabolic activity, MTS assay, HepG2; assay type: cell-based; settings: HepG2, 24 h, 1–100 μmol/L
[7] = molecular target: T2, purified recombinant hMAO-B (Homo sapiens, UniProt P27338); assay: hMAO-B steady-state kinetics, direct MMTP assay; assay type: biochemical; settings: MMTP substrate
T2 sequence (P27338 1-520): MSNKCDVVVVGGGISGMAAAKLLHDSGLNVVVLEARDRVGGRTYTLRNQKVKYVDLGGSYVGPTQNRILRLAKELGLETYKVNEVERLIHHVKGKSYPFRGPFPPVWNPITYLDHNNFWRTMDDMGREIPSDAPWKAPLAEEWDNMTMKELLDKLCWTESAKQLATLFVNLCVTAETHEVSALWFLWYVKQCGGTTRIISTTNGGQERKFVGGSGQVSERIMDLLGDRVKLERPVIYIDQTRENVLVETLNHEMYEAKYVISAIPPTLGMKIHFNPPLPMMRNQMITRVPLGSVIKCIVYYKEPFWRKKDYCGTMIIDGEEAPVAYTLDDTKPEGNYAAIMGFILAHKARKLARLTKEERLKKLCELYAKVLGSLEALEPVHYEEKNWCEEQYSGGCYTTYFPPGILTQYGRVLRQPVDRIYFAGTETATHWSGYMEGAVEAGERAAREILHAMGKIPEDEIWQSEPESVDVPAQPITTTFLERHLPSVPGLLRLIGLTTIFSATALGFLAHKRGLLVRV

[8] = BBB-PAMPA permeability; settings: PAMPA, pH 7.4, BBB–PAMPA permeability Papp (mean ± SD), pH 7.4, 4 h, 25 °C, brain sink buffer
[9] = molecular target: Aβ1–42 (Homo sapiens, UniProt P05067); assay: Aβ1–42 aggregation inhibition, ThT fluorescence assay; assay type: biochemical
[10] = test system: LPS-activated BV2 cells; assay: Nitrite quantification, Griess assay, LPS-stimulated BV2; assay type: cell-based; settings: BV2, LPS 1 μg/mL, 19 at 5 μmol/L
[11] = test system: microglial BV2 cells; assay: Cytotoxicity, 7-AAD flow cytometry, BV2; assay type: cell-based; settings: at 10 μmol/L; sentence does not say which of SH-SY5Y/BV2
[12] = molecular target: T1, hBChE; assay: hBChE inhibition, Ellman's method; assay type: biochemical; settings: hBChE IC50, abstract
[13] = test system: SH-SY5Y cells treated with 6-OHDA; assay: Neuroprotection against 6-OHDA toxicity, 7-AAD; assay type: cell-based; settings: 100 μmol/L 6-OHDA
[14] = test system: LPS-activated BV2 cells; assay: Neuroprotection in LPS-induced BV2 neuroinflammation model, 7-AAD; assay type: cell-based; settings: BV2, LPS 1 μg/mL, 19 at 0.5–5 μmol/L
[15] = DPPH radical-scavenging assay; settings: read-out: Radical-scavenging DPPH assay EC50; means ± SEM (n = 2, in triplicates)

Chain of Aβ1–42 (P05067 672-713): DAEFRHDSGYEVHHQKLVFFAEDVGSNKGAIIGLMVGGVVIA
T1 sequence (P06276 29-602): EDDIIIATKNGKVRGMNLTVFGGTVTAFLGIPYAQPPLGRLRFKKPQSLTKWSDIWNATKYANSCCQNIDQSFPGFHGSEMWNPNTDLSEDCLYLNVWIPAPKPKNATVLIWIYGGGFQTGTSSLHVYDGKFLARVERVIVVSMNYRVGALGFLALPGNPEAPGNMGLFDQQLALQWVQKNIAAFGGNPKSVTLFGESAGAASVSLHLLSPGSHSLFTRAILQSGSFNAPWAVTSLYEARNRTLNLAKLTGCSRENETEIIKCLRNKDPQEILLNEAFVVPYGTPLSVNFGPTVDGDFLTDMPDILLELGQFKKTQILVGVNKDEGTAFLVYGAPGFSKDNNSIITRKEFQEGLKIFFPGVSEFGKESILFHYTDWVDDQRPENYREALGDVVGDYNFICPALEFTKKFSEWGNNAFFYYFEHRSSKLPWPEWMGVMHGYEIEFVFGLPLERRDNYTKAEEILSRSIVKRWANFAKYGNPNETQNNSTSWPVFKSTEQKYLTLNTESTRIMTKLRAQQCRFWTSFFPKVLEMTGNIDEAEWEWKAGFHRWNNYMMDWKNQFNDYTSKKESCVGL

## [O-]/[N+](=C\c1ccc2cccc(O)c2n1)Cc1ccccc1 [QN 19, (Z)-N-Benzyl-1-(8-hydroxyquinolin-2-yl)methanimine oxide]
[1]
  chelation of Ca^2+ and Mg^2+: did not chelate
  complexes with Zn^2+, Cu^2+, Al^3+, Fe^2+ and Fe^3+: generated corresponding complexes
[2]
  effect on Aβ plaques of chronic treatment started later: inefficient
[3]
  concentrations at which metabolic activity is reduced (MTS): higher than 10 μmol/L
[4]
  motor impairments in the rotarod test: did not result in any motor impairments
[5]
  Kii, dissociation constant for binding of the second molecule to hBChE: 14.5 nmol/L
[6]
  concentrations at which metabolic activity is reduced (MTS): higher than 10 μmol/L
[7]
  mode of hMAO-B inhibition (best fit): competitive inhibition model
[8]
  Papp at 4 h, 100 μmol/L: ≥ 37.2 ×10⁻⁶ cm/s
[9]; 10 μmol/L ligand and 1.5 μmol/L Aβ1–42, mean ± SD (n ≥ 3)
  Inhibition of Aβ1–42 aggregation: n.i. ^e (n.i., no inhibition <20%)
[9]; ThT fluorescence assay
  inhibition of self-induced aggregation of Aβ1–42 (in words): inactive
[10]
  LPS-induced nitrite concentration: reduced LPS-induced increase in nitrite concentration
[11]
  cell viability (7-AAD): reduced cell viability to a significant extent
[12]
  IC50: 0.00106 ± 0.00031 µM
[13]; 19 at 0.5 and 1 μmol/L
  cell viability under 6-OHDA co-treatment: increased cell viability
[13]; 19 at 2.5 and 5 μmol/L
  neuroprotective activity under 6-OHDA co-treatment: neuroprotective activity was lost
[14]
  neuroprotective effects on cell viability, LPS model: No neuroprotective effects on cell viability
[15]
  EC50: 126 ± 0.1 µM
